Patent US8642801B2 (BHI Limited Partnership, priority 2003, dated 2014)

Legend:
[1] = tested on: Aβ40 and Aβ42 peptides in plasma and brain of TgCRND8 mice; experiment: Short term treatment in adult transgenic CRND8 mice overexpressing βAPP: Aβ levels in plasma and brain by ELISA; assay type: in vivo, Mouse; details: after 14 and 28 days of treatment, TgCRND8 mice
Procedure, shortened: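 TgCRND8 mice (B6C3F1 backcross, ~11 weeks at treatment start) given short-term treatment; Aβ40 and Aβ42 in plasma and soluble/insoluble brain fractions measured by fluorometric sandwich ELISA (ex 460/em 560 nm). Levels normalized to vehicle (water or methylcellulose) groups and scored as +/− symbols by effect strength.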

[2] = tested on: amyloid plaques in the brains of TgCRND8 mice; experiment: Histological ThioS (thioflavin S) study of brain plaques, long term treatment of TgCRND8 mice; assay type: in vivo, Mouse; details: 30 mg/kg; preliminary histochemical experiments
Description: The following abbreviations are used to designate these animals in the present study: TgCRND8.B6AF1/J(N2); TgCRND8.B6AF1/J(N3). Male and female transgenic mice were given daily subcutaneous (compound BX) or oral (compounds BW and BZ) administrations of the appropriate compounds for 8 or 16 weeks.
Starting at 9 weeks of age (±1 week) animals received daily administration of their respective treatment for a period of 8 or 16 weeks, at a dose of 30 or 100 mg/kg at 10 ml/kg. The route of administration was subcutaneous for water-soluble compounds (Compound BX) and oral for compounds solubilized in methylcellulose 1% (MC 1%) (Compounds BW and BZ). At the end of the treatment periods, plasma and perfused brains were collected for quantification of Aβ levels.
For the ThioS studies, the plaques in the brains of the mice were quantified as follows. Mice were transcardially perfused with saline solution. […] Image analysis to quantify the number of plaques and the area occupied by these plaques was performed using Image Pro Plus software (Media Cybernetics, MD, USA). […]
Specifically, increases in the areas and numbers of plaques (relative to vehicle treated control) of 10 to 19.99% are scored as “+”. Decreases in the areas and numbers of plaques of 10 to 19.99% are scored as “−”. Additionally, changes of 9.99% or less in either direction are scored as “0”.

## CC(C)(C)NCCCS(=O)(=O)O [BX, 3-(t-butyl)amino-1-propanesulfonic acid]
[1]
  levels of Aβ peptides in the plasma: significant increase
[2]
  area occupied by the plaques (ThioS staining of brain sections): decreased
  number of plaques (ThioS staining of brain sections): decreased
